Data as given in publication PMC9413390 (Molecules, 2022).
Where a name gives a salt, the structure may show the parent alone. Read-outs that look alike come from different tables or passages of the source.

Key:
[1] = biological target: T1, KOR (Cavia porcellus, UniProt P41144); test: biochemical; type: binding, guinea pig
T1 construct: from tissue; host or cells: brain membranes of male Dunkin-Hartley guinea pigs

[2] = biological target: T2, σ2R (Rattus norvegicus, UniProt Q5U3Y7); test: σ2R radioligand competition binding assay ([3H]DTG, rat liver membranes)
T2 construct: The thawed membrane preparation of rat liver (250 μg/sample) was incubated; from tissue; host or cells: liver membranes of male Sprague-Dawley rats
T2 sequence (Q5U3Y7 1-176): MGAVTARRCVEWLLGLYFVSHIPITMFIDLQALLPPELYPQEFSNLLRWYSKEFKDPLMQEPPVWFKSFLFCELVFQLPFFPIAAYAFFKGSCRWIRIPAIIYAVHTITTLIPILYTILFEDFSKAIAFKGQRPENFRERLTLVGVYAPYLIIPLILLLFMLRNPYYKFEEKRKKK

[3] = tested on: formalin-induced pain behaviour; test: Mouse formalin test; type: in vivo
Method: Mice injected with 5% formalin into the mid-plantar surface of the right hind paw developed the characteristic formalin-induced pain behaviour, evidenced by a biphasic flinching and lifting/licking response. The time course of formalin-induced behaviours evidenced an immediate and acute nociceptive activity (0–5 min, phase I) that, after a short quiescent period (5–10 min, interphase), was followed by a more prolonged response (10–60 min, phase II).
To evaluate the systemic antinociceptive effect in both phases of the formalin test, vehicle, (−)-2R-LP2 (2) (2mg/kg), (−)-2S-LP2 (3) (0.7 mg/kg), (+)-2R/S-LP2 (7) (5 mg/kg), and (+)-2R-LP2 (8) (5 mg/kg) were administrated intraperitoneally (i.p.) 20 min before formalin injection, at doses chosen in accordance to previous studies.
Experiments were performed on male CD1 mice (Envigo Laboratories, Indianapolis, IN, USA) aged between 8 and 12 weeks. Mice were housed in 5 animals per cage under a 12/12 h light/dark cycle at a constant temperature (23–25 °C) with free access to food and water, and were allowed to acclimate for at least one week upon arrival before starting all experiments, which were conducted between 9:00 a.m. and 3:00 p.m. This study was executed according to the European Communities Council directive and Italian regulation (EEC Council 2010/63/EU and Italian D.Lgs. no. 26/2014) to replace, reduce, and refine the use of laboratory animals. All procedures were approved by the ethical committee of the University of Catania (OPBA) and by the Italian Ministry of Health (authorization n° 385/2021-PR).
Formalin and naloxone hydrochloride were purchased from Merck. PRE-84 synthesis was reported in the supporting information (Figure S7). All compounds were dissolved in pyrogen-free isotonic saline and dimethyl sulfoxide, (DMSO 0.5% v/v). All LP compounds were administrated i.p. 20 min before formalin injection. Naloxone hydrochloride s.c. and PRE-084 hydrochloride s.c. were administered 20 min before the injection of the LP compounds.
Formalin solution (5%, 10 μL) was administered subcutaneously into the plantar surface of the right hind paw (i.pl.), monitoring the nociceptive behavior, such as licking and flicking or shanking the injected paw, for 1 h and recording every 5 min, as previously reported.
The formalin injection induces a rapid pain response (phase I), which lasts about 5 min, due to direct nociceptors’ activation, characterized by an acute form of pain. After a short quiescent period, another behavioral pain form (phase II) occurs, considered more important clinically, characterized by an inflammatory component and persistent pain due to nociceptive sensitization in the dorsal horn of the spinal cord.
Results are expressed as mean ± S.E.M. (n = 8–10 per group). * p < 0.05, ** p < 0.01. Two-way ANOVA was followed by Bonferroni’s multiple comparison test. Statistical analyses were performed using GraphPad Prism version 9.3.1 (GraphPad Software, San Diego, CA, USA).

[4] = biological target: T3, DOR (Rattus norvegicus, UniProt P33533); test: DOR radioligand binding assay ([3H]-Deltorphin II, rat brain membranes)
T3 construct: from tissue; host or cells: brain membranes of male Sprague-Dawley rats

[5] = biological target: T4, MOR (Rattus norvegicus, UniProt P33535); test: MOR radioligand binding assay ([3H]-DAMGO, rat brain membranes)
T4 construct: from tissue; host or cells: brain membranes of male Sprague-Dawley rats

[6] = biological target: T5, σ1R (Cavia porcellus, UniProt Q60492); test: σ1R radioligand competition binding assay ([3H]-(+)-pentazocine, guinea pig brain cortex membranes); conditions: for Ki σ2R/σ1R selectivity ratio: ratio of Ki σ2R to Ki σ1R
T5 construct: The thawed membrane preparation of guinea pig brain cortex (250 μg/sample) was incubated; from tissue; host or cells: brain cortex membranes of male Dunkin-Hartley guinea pigs

[7] = tested on: formalin-induced pain behaviour; design: method as in PMID 32186844, PMID 19587856; conditions: mouse, injected alone; cited from earlier work
[8] = 5 mg/kg i.p. 20 min before formalin, vs vehicle

T1 sequence (P41144 whole entry): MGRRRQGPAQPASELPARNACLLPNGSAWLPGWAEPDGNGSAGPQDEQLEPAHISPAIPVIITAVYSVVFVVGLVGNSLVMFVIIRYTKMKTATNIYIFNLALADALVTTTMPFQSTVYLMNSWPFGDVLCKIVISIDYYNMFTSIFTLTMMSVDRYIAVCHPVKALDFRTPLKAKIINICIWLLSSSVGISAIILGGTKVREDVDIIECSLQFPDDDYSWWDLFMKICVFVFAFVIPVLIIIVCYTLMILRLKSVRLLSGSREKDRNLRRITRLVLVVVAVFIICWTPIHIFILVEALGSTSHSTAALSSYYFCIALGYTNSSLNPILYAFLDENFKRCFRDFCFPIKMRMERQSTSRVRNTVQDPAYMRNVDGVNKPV
T4 sequence (P33535 whole entry): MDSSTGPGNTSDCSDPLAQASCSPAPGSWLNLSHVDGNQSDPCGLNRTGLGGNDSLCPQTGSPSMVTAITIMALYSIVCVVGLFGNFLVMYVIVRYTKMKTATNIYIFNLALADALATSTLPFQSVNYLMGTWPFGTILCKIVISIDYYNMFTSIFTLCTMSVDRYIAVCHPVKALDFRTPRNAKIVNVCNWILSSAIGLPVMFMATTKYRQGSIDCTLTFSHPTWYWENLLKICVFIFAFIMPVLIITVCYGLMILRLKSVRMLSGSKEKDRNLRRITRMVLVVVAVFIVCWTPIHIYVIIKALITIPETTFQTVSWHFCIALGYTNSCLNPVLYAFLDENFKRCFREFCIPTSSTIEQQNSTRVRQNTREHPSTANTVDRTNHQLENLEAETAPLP
T3 sequence (P33533 whole entry): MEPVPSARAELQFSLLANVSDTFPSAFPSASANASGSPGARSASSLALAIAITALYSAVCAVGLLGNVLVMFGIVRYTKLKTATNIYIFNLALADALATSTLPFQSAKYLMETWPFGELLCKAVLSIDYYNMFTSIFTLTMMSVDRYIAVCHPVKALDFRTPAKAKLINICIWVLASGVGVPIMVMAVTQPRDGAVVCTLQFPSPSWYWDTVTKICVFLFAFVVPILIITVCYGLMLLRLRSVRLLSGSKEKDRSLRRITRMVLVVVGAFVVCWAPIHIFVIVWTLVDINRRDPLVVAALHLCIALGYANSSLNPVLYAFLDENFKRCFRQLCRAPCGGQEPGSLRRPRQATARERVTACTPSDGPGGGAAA
T5 sequence (Q60492 whole entry): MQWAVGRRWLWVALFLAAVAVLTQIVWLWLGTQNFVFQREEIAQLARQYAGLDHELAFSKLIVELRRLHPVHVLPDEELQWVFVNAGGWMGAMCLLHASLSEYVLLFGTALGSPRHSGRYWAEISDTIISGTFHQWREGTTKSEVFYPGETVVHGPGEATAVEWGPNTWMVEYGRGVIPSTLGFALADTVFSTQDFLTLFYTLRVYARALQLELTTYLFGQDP

Row | SMILES | Ki [1] [nM] | Ki [2] [nM] | Ki [4] [nM] | Ki [5] [nM] | Ki [6] [nM] | other results
1 | COC(CN1CC[C@]2(C)c3cc(O)ccc3C[C@H]1[C@H]2C)c1ccccc1 (single isomer, unassigned; (+)) [(+)-2R/S-LP2 (7)] | 1390 ± 40 | 2390 ± 514 | 1040 ± 35 | 1140 ± 20 | 26.6 ± 2.35 | severity of the first phase of formalin-induced pain ([3]; 5 mg/kg i.p. 20 min before formalin, phase I): did not alter; second phase of formalin-induced pain (number of flinches, lifting/licking time) ([3]; 5 mg/kg i.p. 20 min before formalin, phase II, vs vehicle): significantly decreased; antinociceptive effect after PRE-084 pre-treatment ([3]; PRE-084 hydrochloride 32 mg/kg s.c. 20 min before compound 5 mg/kg i.p., second phase): prevented
2 | COC(CN1CC[C@@]2(C)c3cc(O)ccc3C[C@@H]1[C@@H]2C)c1ccccc1 (single isomer, unassigned; (-)) [(−)-2R/S-LP2 (1)] | – | 66.5 ± 10.9 | – | – | 171 ± 46.1 | –
3 | CO[C@@H](CN1CC[C@]2(C)c3cc(O)ccc3C[C@H]1[C@H]2C)c1ccccc1 [(+)-2R-LP2 (8), (2S,6S,11S)-3-((R)-2-methoxy-2-phenylethyl)-6,11-dimethyl-1,2,3,4,5,6-hexahydro-2,6-methanobenzo[d]azocin-8-ol] | 1610 ± 70 | 1910 ± 325 | 1010 ± 25 | 789 ± 30 | 47.9 ± 7.52 | effect on nociceptive behaviour in the formalin test [3, 8]: not significative; Ki σ2R/σ1R selectivity ratio [6]: 40
4 | CO[C@H](CN1CC[C@]2(C)c3cc(O)ccc3C[C@H]1[C@H]2C)c1ccccc1 [(+)-2S-LP2 (9), (2S,6S,11S)-3-((S)-2-methoxy-2-phenylethyl)-6,11-dimethyl-1,2,3,4,5,6-hexahydro-2,6-methanobenzo[d]azocin-8-ol] | 1450 ± 29 | 2220 ± 417 | 1040 ± 40 | 1170 ± 30 | 47 ± 8.82 | effect on nociceptive behaviour in the formalin test [3, 8]: did not differ significantly from the vehicle; Ki σ2R/σ1R selectivity ratio [6]: 47
5 | CO[C@@H](CN1CC[C@@]2(C)c3cc(O)ccc3C[C@@H]1[C@@H]2C)c1ccccc1 [(−)-2R-LP2 (2)] | – | 66.7 ± 17.9 | – | – | 183 ± 21 | analgesic effect, flinching/licking time in both phases of the formalin test ([3]; 2 mg/kg i.p. 20 min before 5% formalin): same profile with a minor potency
6 | CO[C@H](CN1CC[C@@]2(C)c3cc(O)ccc3C[C@@H]1[C@@H]2C)c1ccccc1 [(−)-2S-LP2 (3)] | – | 1010 ± 191 | – | – | 113 ± 13.5 | analgesic effect, flinching/licking time in both phases of the formalin test ([3]; 0.7 mg/kg i.p. 20 min before 5% formalin): significant analgesic effect; antinociceptive effect after naloxone pre-treatment ([3]; naloxone hydrochloride 3 mg/kg s.c. 20 min before compound 0.7 mg/kg i.p.): antagonized
7 | CN1CCN(CCc2ccc(Cl)c(Cl)c2)CC1 [BD-1063, reference compound] | – | – | – | – | – | Ki ([6]; [3H]-(+)-pentazocine 2 nM, guinea pig brain cortex membranes, read-out: Ki (nM) ± SD σ1R): 14 ± 2.7 nM
8 | O=C(OCCN1CCOCC1)C1(c2ccccc2)CCCCC1 [PRE-084 hydrochloride, 2-morpholinoethyl 1-phenylcyclohexane-1-carboxylate] | – | – | – | – | – | severity of the first and second phases of formalin-induced pain, given alone [7]: did not change
